Measured values reported in US20070167492A1, “Molluscicidal agents” (priority 2003, published 2007).
Entries after “also recorded” stand apart in the source; their conditions may differ.

Key:
Type in all cases: in vivo
[1] = tested on: Winter wheat (Kampa race) seeds; test: Seed germination test of treated winter wheat seeds (rolled in paper); conditions: 3x50 seeds, 6 days at 22° C.
Method in brief: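 Seeds were disinfected with fludioxonil-containing Beret Gold (2 ml per kg seed) and coated with Sepiret® for formulations unsuitable for coating. Germination of 3×50 seeds rolled in paper was scored after 6 days at continuous 22° C. under a 16 hours light regime.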

[2] = tested on: Deroceras reticulatum (grey field slug); test: Example 1: pot test, treated winter wheat seed with 5 adult slugs per pot, 14 days
Method in brief: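 Fludioxonil-disinfected winter wheat seed (Kampa, 40 per pot) sown on quartz sand over potting soil with 5 adult slugs per pot; ±15° C., ±90% RH, 12 h light/12 h dark, 4 replicates. Damaged seeds, plants, dead slugs and fecal pellets counted up to day 14; F-tests and Student-tests.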

[3] = tested on: Deroceras reticulatum (grey field slug); test: Example 2: pot re-test, treated winter wheat seed with 5 adult slugs per pot, 7 days
Excerpt: Based on the results of the experiment described in Example 1, a selection was made from the various test numbers of that experiment for re-testing, partly to confirm the conclusions of that experiment and to test the unexpected outcome of some test compounds.
The selection of test numbers (Test No.) used in the present experiment relative to those of the experiment described in Example 1 is shown in Table 7.
The same seeds as described in Example 1 were sown in earthenware pots with an internal diameter of 20 cm and a height of 18 cm, filled with 7 cm of potting soil (Trio BV, Weesp, The Netherlands) and with a top 2 cm of white quartz sand. A total of 40 winter wheat seeds was placed in each pot, in a pattern of concentric circles on top of the quartz sand, the germ of the seed facing upwards. To each pot a total of 5 adult specimens of the test slug Deroceras reticulatum (grey field slug) were added. The pots were incubated at 18-19° C. with a relative humidity of ±95% and light regime of ±18 hours light/6 hours dark, without artificial lighting. The pots were not irrigated overhead. In total, 4 parallel tests were performed for each test.
The number of damaged seeds was, the number of plants present (germinated and not eaten or damaged by the slugs), the number of dead slugs and of the number of fecal pellets were determined after 2, 3 and 7 days following the addition of the slugs.
The data were statistically analysed by using F-tests (α=0.05) and pair-wise Student-tests.

[4] = tested on: Grey field slug (Deroceras reticulatum); test: Example 3:  trial oilseed rape, treated seed, 5 slugs per plot; conditions: doses of 10.4 and 20.8 ml per kg seed
Excerpt: The compounds and doses used are described in table 12.
Trial Data Cultivaton • Location: Glasshouse • Plots consist of: One earthenware pot, diameter 20 cm, height 18 cm • Trial medium: 7 cm of peat based potting compost, covered with silversand • Cultivar: Talent (00) • Thousand seed weight: 7.0 g • Seed treatments: Carried out on 12 Mar. 2004. The fungicide treatment was 4 g a.i. TMTD per kg seed • Sowing date: 9 Apr. 2004 • Number of seeds per pot: 40 • Experimental layout: Randomised block design • Number of replicates: 4 (I to IV), Annex 1 • Temperature during cultivation: 16 hours 20° C., 8 hours 15° C. Trial • Location: Laboratory • Starting date: 20 Apr. 2004 • Slug species: Grey field slug (Deroceras reticulatum). The slugs were collected from the field and only healthy individuals were used. • Number of slugs per plot: 5 • Temperature during trial: ±18° C. • Relative humidity during trial: ±90% Assessment
After starting the trial, assessments were made on 21, 23 and 26 April. At each assessment, the total numbers of plants, the numbers of attacked plants, the numbers of dead slugs and the numbers of fecal pellets were counted. […] In addition, the numbers of normal plants were counted on 23 and 26 April and the fresh aboveground plant weight per plot was assessed on 27 April. […]
Data were analysed using analysis of variance and Student's t-distribution with the PPAIR procedure.

[5] = 2 ml formulated per kg seed, 2 days after sowing
[6] = 2 ml formulated per kg seed, 3 days after sowing
[7] = 2 ml formulated per kg seed, 7 days after sowing
[8] = 2 ml formulated per kg seed, 10 days after sowing
[9] = 2 ml formulated per kg seed, 14 days after sowing
[10] = 10 ml formulated per kg seed, 2 days after sowing
[11] = 10 ml formulated per kg seed, 3 days after sowing
[12] = 10 ml formulated per kg seed, 7 days after sowing
[13] = 10 ml formulated per kg seed, 10 days after sowing
[14] = 10 ml formulated per kg seed, 14 days after sowing
[15] = Example 2, 2 ml formulated per kg seed, 2 days after sowing
[16] = Example 2, 2 ml formulated per kg seed, 3 days after sowing
[17] = Example 2, 2 ml formulated per kg seed, 7 days after sowing
[18] = Example 2, after 2, 3 and 7 days

N#CN=C1SCCN1Cc1ccc(Cl)nc1 [thiacloprid, N-[3-(6-chloropyridin-3-ylmethyl)thiazolidin-2-ylidene]cyanamide]
Percentage germinated ([1]; 2 ml formulated per kg seed): 73%
Percentage germinated ([1]; 10 ml formulated per kg seed): 58%
number of utilizable plants after 14 days ([2]; 2 ml formulated per kg seed): 28.8
percentage of damaged seeds after 14 days ([2]; 2 ml formulated per kg seed): 13%
Mean number of damaged seeds per pot [2, 5]: 1.3
Mean number of dead slugs per pot [2, 5]: 0
Mean number fecal pellets per pot [2, 6]: 14
Mean number of damaged seeds per pot [2, 6]: 3.3
Mean number of dead slugs per pot [2, 6]: 0.3
Mean number of plants present per pot [2, 6]: 6.3
Mean number fecal pellets per pot [2, 7]: 23
Mean number of damaged seeds per pot [2, 7]: 7.5
Mean number of dead slugs per pot [2, 7]: 0.5
Mean number of plants present per pot [2, 7]: 27.8
Mean number fecal pellets per pot [2, 8]: 17
Mean number of damaged seeds per pot [2, 8]: 5.5
Mean number of dead slugs per pot [2, 8]: 0.5
Mean number of plants present per pot [2, 8]: 28.5
Mean number fecal pellets per pot [2, 9]: 21
Mean number of damaged seeds per pot [2, 9]: 5.3
Mean number of dead slugs per pot [2, 9]: 0.8
Mean number of plants present per pot [2, 9]: 29.3
number of utilizable plants after 14 days ([2]; 10 ml formulated per kg seed): 34.5
percentage of damaged seeds after 14 days ([2]; 10 ml formulated per kg seed): 8%
Mean number of damaged seeds per pot [2, 10]: 0.5
Mean number of dead slugs per pot [2, 10]: 0
Mean number fecal pellets per pot [2, 11]: 5
Mean number of damaged seeds per pot [2, 11]: 1.5
Mean number of dead slugs per pot [2, 11]: 0
Mean number of plants present per pot [2, 11]: 10.5
Mean number fecal pellets per pot [2, 12]: 8
Mean number of damaged seeds per pot [2, 12]: 3.3
Mean number of dead slugs per pot [2, 12]: 0
Mean number of plants present per pot [2, 12]: 32.8
Mean number fecal pellets per pot [2, 13]: 7
Mean number of damaged seeds per pot [2, 13]: 3.3
Mean number of dead slugs per pot [2, 13]: 0.3
Mean number of plants present per pot [2, 13]: 34.0
Mean number fecal pellets per pot [2, 14]: 9
Mean number of damaged seeds per pot [2, 14]: 3.3
Mean number of dead slugs per pot [2, 14]: 0.3
Mean number of plants present per pot [2, 14]: 34.8
damaged seeds relative to untreated control seed ([2]; Example 1, 2 or 10 ml per kg of seed, at each observation (after 2 days only 10 ml)): less damaged seeds than the untreated control seed
protection of the wheat against slugs (conclusion) ([2]; Example 1, already at a low dose of 2 ml): good protection of the wheat against slugs
fecal pellets relative to the untreated seed ([2]; Example 1, at each dosage and at each observation): large and significant reduction in the number of fecal pellets; also recorded: significantly less fecal pellets
plants present and utilizable plants relative to the untreated seed ([2]; Example 1, both 2 and 10 ml per kg of seed, after 7 days): significantly more plants present and utilizable plants
comparison with imidacloprid (fecal pellets, damaged seeds, plants present, utilizable plants) ([2]; Example 1, two weeks after the start): scored surprisingly better than the related compound imidacloprid
result of seed treatment against slugs (conclusion) ([3]; Example 2): good results
percentage of damaged seeds after 7 days ([3]; Example 2, 2 ml formulated per kg seed): 14%
Mean number of damaged seeds per pot [3, 15]: 3.5
Mean number of dead slugs per pot [3, 15]: 0
Mean number of damaged seeds per pot [3, 16]: 4.5
Mean number of dead slugs per pot [3, 16]: 0
Mean number of damaged seeds per pot [3, 17]: 5.8
Mean number of dead slugs per pot [3, 17]: 0.3
number of fecal pellets per pot relative to the untreated control [3, 18]: significant reduction in the number of fecal pellets
plants present relative to the untreated seed [3, 18]: significantly more plants present
number of damaged seeds relative to the untreated seed ([3]; Example 2, two days after the start): significant reduction in the number of damaged seeds
Mean number of fecal pellets per pot ([3]; dosage 2 ml, 2 days): 8
Mean number of plants present per pot ([3]; dosage 2 ml, 2 days): 12.5
Mean number of fecal pellets per pot ([3]; dosage 2 ml, 3 days): 14
Mean number of plants present per pot ([3]; dosage 2 ml, 3 days): 24.0
Mean number of fecal pellets per pot ([3]; dosage 2 ml, 7 days): 17
Mean number of plants present per pot ([3]; dosage 2 ml, 7 days): 29.5
number of utilizable plants after 7 days ([3]; dosage 2 ml, 7 days): 23.5
damage (conclusion) [4]: decreases the damage
